Experimental data: patent US20090170813A1, “Hypophosphorous Acid Derivatives and their Therapeutical Applications” (priority 2005, published 2009)

Biological target: T1, rat mGlu4 (Rattus norvegicus, UniProt P31423)
T1 construct: expressed in transfected cells; host or cells: HEK293
Assay: Agonist activity, [3H]phosphatidylinositol accumulation in HEK293 cells transfected with rat mGlu4 and Gqi9
Type: cell-based
Conditions: Table 2, remark beside EC50
Method: Agonist activity of the compounds was tested on HEK293 cells transiently transfected with rat mGlu4 expressing plasmid pRKG4 and chimeric G-protein Gqi9 by electroporation, as described by Gomeza, J. et al, Mol. Pharmacol; 1996, 50, 923-930.
Cells were plated in 96-well culture plates and labeled overnight with [^3H]myoinositol. The day after, cells were washed three times with Krebs buffer, incubated for 10 min with LiCl 5 mM, and then incubated for 30 min in the absence (basal) or in the presence of the indicated compounds at 1 nM up to 1000 μM. The total amount of [^3H]phosphatidylinositol accumulated in the cells was determined after Dowex purification as previously by Goudet C, et al, Prod. Natl. Acad. Sci. USA 2004, 101, 378-383.
The response dosis curves were adjusted by using equatrier y=[(Ymax−ymin)/(1+(x/EC50)^n)]+ymin where EC50 is the concentration necessary for obtaining half of the maximal effect and n is Hill coefficient.

T1 sequence (P31423 33-912): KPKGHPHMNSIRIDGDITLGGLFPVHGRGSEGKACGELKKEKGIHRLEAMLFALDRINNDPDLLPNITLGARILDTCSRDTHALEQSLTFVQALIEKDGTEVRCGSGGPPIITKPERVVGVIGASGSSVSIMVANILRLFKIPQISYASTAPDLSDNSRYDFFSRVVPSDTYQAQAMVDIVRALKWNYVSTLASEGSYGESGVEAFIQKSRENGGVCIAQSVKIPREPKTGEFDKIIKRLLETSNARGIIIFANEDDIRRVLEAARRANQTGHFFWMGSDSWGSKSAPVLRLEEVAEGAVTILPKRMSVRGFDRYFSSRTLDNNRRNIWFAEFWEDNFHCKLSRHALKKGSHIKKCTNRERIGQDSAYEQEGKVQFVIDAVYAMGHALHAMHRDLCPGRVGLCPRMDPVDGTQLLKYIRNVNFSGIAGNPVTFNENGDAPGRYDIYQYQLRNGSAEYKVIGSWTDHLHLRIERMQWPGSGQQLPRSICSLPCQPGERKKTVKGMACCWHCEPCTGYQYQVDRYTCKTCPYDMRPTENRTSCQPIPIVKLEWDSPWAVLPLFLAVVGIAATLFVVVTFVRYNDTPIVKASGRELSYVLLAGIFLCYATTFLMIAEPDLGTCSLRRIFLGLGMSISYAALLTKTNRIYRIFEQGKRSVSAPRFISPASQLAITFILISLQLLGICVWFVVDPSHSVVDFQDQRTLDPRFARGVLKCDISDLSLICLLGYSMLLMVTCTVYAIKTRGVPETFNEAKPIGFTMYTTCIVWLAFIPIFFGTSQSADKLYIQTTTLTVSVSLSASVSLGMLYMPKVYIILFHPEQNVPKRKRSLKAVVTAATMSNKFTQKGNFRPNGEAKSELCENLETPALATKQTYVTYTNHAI

SMILES | mGlu4 agonist character (partial)
N[C@@H](CCP(=O)(O)C(O)C1CC1C(=O)O)C(=O)O (single isomer, unassigned) [CS159] | partial
N[C@@H](CCP(=O)(O)C1COC(=O)C1)C(=O)O (stereo partly drawn) [Compound 36, (3S)-4-[((3-amino-3-carboxy)propyl)(hydroxy)phosphinyl]furanone] | partial

Same assay, conditions: Table 2; n in brackets; read-out: mGlu4 EC50 μM (n)

EC50 [µM] | SMILES
20.8 | N[C@@H](CCP(=O)(O)C(O)c1cccc(C(=O)O)c1)C(=O)O (stereo partly drawn) [Compound 24, (3S)-3-[(((3-amino-3-carboxy)propyl)(hydroxy)phosphinyl)-hydroxymethyl]benzoic Acid]
0.28 | N[C@@H](CCP(=O)(O)C(O)c1ccc(C(F)(F)F)c([N+](=O)[O-])c1)C(=O)O (stereo partly shown) [Compound 38]
31.8 | N[C@@H](CCP(=O)(O)C(O)c1ccc(C(=O)O)cc1)C(=O)O (stereo partly drawn) [Compound 40, (3S)-4-[(((3-amino-3-carboxy)propyl)(hydroxy)phosphinyl)-hydroxymethyl]benzoic Acid]
1.02 | N[C@@H](CCP(=O)(O)C(O)c1ccc(F)c([N+](=O)[O-])c1)C(=O)O (stereo partly shown) [Compound 50]
1.69 | Cc1ccc(C(O)P(=O)(O)CC[C@H](N)C(=O)O)cc1[N+](=O)[O-] (stereo partly shown) [Compound 52]
22.2 | N[C@@H](CCP(=O)(O)C(O)c1ccc(C(F)(F)F)cc1)C(=O)O (stereo partly shown) [Compound 54]
0.63 | N[C@@H](CCP(=O)(O)C(O)c1cccc([N+](=O)[O-])c1)C(=O)O (stereo partly drawn) [Compound 56, (3S)-3-[(((3-amino-3-carboxy)propyl)(hydroxy)phosphinyl)-hydroxymethyl] 3-nitrobenzene]
2.89 | COc1ccc(C(O)P(=O)(O)CC[C@H](N)C(=O)O)cc1[N+](=O)[O-] (stereo partly drawn) [Compound 58, (3S)-3-[(((3-amino-3-carboxy)propyl)(hydroxy)phosphinyl)-hydroxymethyl] 3-nitro-4-methoxybenzene]
2 | N[C@@H](CCP(=O)(O)C(O)c1ccc(O)c([N+](=O)[O-])c1)C(=O)O (stereo partly drawn) [Compound 62, (3S)-3-[(((3-amino-3-carboxy)propyl)(hydroxy)phosphinyl)-hydroxymethyl]-6-hydroxy-1-nitrobenzene]
2.74 | N[C@@H](CCP(=O)(O)C(O)c1ccc(Cl)c([N+](=O)[O-])c1)C(=O)O (stereo partly drawn) [Compound 66, (3S)-3-[(((3-amino-3-carboxy)propyl)(hydroxy)phosphinyl)-hydroxymethyl]-6-chloro-1-nitrobenzene]
0.93 | N[C@@H](CCP(=O)(O)C(O)c1ccc([N+](=O)[O-])cc1)C(=O)O (stereo partly drawn) [Compound 72, (3S)-4-[(((3-amino-3-carboxy)propyl)(hydroxy)phosphinyl)-hydroxymethyl] nitrobenzene]
> 100 | CS(=O)(=O)c1ccc(C(O)P(=O)(O)CC[C@H](N)C(=O)O)cc1 (stereo partly drawn) [Compound 74, (3S)-4-[(((3-amino-3-carboxy)propyl)(hydroxy)phosphinyl)-hydroxymethyl]methylsulphonylbenzene]
15.2 | N[C@@H](CCP(=O)(O)C(O)c1cccc([N+](=O)[O-])c1O)C(=O)O (stereo partly drawn) [Compound 78, (3S)-3-[(((3-amino-3-carboxy)propyl)(hydroxy)phosphinyl)-hydroxymethyl] 2-hydroxy-nitrobenzene]
0.087 | N[C@@H](CCP(=O)(O)C(O)c1ccc([N+](=O)[O-])o1)C(=O)O (stereo partly drawn) [Compound 84, (3S)-2-[(((3-amino-3-carboxy)propyl)(hydroxy)phosphinyl)-hydroxymethyl] 5-nitrofuran]
0.31 | N[C@@H](CCP(=O)(O)C(O)c1ccc([N+](=O)[O-])s1)C(=O)O (stereo partly drawn) [Compound 86, (3S)-2-[(((3-amino-3-carboxy)propyl)(hydroxy)phosphinyl)-hydroxymethyl] 5-nitrothiophene]
0.305 | N[C@@H](CCP(=O)(O)C(O)c1ccc([N+](=O)[O-])c(C(F)(F)F)c1)C(=O)O (stereo partly drawn) [Compound 94, (3S)-4-[(((3-amino-3-carboxy)propyl)(hydroxy)phosphinyl)-hydroxymethyl] 2-trifluoro methyl-1-nitrobenzene]

The remaining lines, values behind:

SMILES | EC50 [µM]
N[C@@H](CCP(=O)(O)C(O)C1CC1C(=O)O)C(=O)O (single isomer, unassigned) [CS158] | 5.1
N[C@@H](CCP(=O)(O)C(O)C1CC1C(=O)O)C(=O)O (single isomer, unassigned) [CS159] | 12.9
N[C@@H](CCP(=O)(O)CCC(=O)O)C(=O)O [Compound 7, (3S)-3-[((3-Amino-3-carboxy)propyl)(hydroxy)phosphinyl]propanoic Acid] | 6.4
NC(CCP(=O)(O)C(CC(=O)O)C(=O)O)C(=O)O (stereo not shown) [Compound 11] | 59
N[C@@H](CCP(=O)(O)CC(CC(=O)O)C(=O)O)C(=O)O (stereo partly drawn) [Compound 19, (3S)-2-[(((3-amino-3-carboxy)propyl)(hydroxy)phosphinyl)-methyl]butane-1,4-dioic Acid] | 28.7
N[C@@H](CCP(=O)(O)CC(=O)O)C(=O)O [Compound 26, (3S)-2-[((3-amino-3-carboxy)propyl)(hydroxy)phosphinyl]ethanoic Acid] | 3.8
N[C@@H](CCP(=O)(O)C1COC(=O)C1)C(=O)O (stereo partly drawn) [Compound 36, (3S)-4-[((3-amino-3-carboxy)propyl)(hydroxy)phosphinyl]furanone] | 11.5
COc1cc(C(O)P(=O)(O)CC[C@H](N)C(=O)O)cc([N+](=O)[O-])c1O (stereo partly drawn) [Compound 64, (3S)-3-[(((3-amino-3-carboxy)propyl)(hydroxy)phosphinyl)-hydroxymethyl]-5-methoxy-6-hydroxy-1-nitrobenzene] | 1.5
N[C@@H](CCP(=O)(O)C(O)c1ccc(N2CCOCC2)c([N+](=O)[O-])c1)C(=O)O (stereo partly drawn) [Compound 68, (3S)-3-[(((3-amino-3-carboxy)propyl)(hydroxy)phosphinyl)-hydroxymethyl]-6-morpholino-1-nitro benzene] | > 100
N[C@@H](CCP(=O)(O)C(O)c1ccc([N+](=O)[O-])cc1[N+](=O)[O-])C(=O)O (stereo partly drawn) [Compound 70, (3S)-4-[(((3-amino-3-carboy)propyl)(hydroxy)phosphinyl)-hydroxymethyl]-1,3-dinitrobenzene] | 1
N[C@@H](CCP(=O)(O)C(O)c1cc([N+](=O)[O-])cc([N+](=O)[O-])c1O)C(=O)O (stereo partly drawn) [Compound 76, (3S)-3-[(((3-amino-3-carboxy)propyl)(hydroxy)phosphinyl)-hydroxymethyl] 2-hydroxy-1,5-dinitrobenzene] | 2.3
N[C@@H](CCP(=O)(O)C(O)c1c(F)c(F)c(F)c(F)c1F)C(=O)O (stereo partly drawn) [Compound 80, (3S)-1-[(((3-amino-3-carboxy)propyl)(hydroxy)phosphinyl)-hydroxymethyl] 2,3,4,5,6-pentafluorobenzene] | 5.19
N[C@@H](CCP(=O)(O)C(O)c1cc([N+](=O)[O-])ccc1O)C(=O)O (stereo partly drawn) [Compound 82, (3S)-3-[(((3-amino-3-carboxy)propyl)(hydroxy)phosphinyl)-hydroxymethyl] 4-hydroxy-nitrobenzene] | 1.17
N[C@@H](CCP(=O)(O)C(O)c1ccc(C(F)(F)F)o1)C(=O)O (stereo partly drawn) [Compound 88, (3S)-2-[(((3-amino-3-carboxy)propyl)(hydroxy)phosphinyl)-hydroxymethyl] 5-trifluoromethylfuran] | 1.98
N[C@@H](CCP(=O)(O)C(O)c1c([N+](=O)[O-])cccc1[N+](=O)[O-])C(=O)O (stereo partly drawn) [Compound 90, (3S)-2-[(((3-amino-3-carboxy)propyl)(hydroxy)phosphinyl)-hydroxymethyl] 1,3-dinitro benzene] | 1.96

Same assay, conditions: at 100 μM

mGlu4 activity at 100 μM | mGlu4 % max at 100 μM | SMILES
– | 10% max at 100 μM (1) | N[C@@H](CCP(=O)(O)C(CC(=O)O)CC(=O)O)C(=O)O [Compound 16, (3S)-3-[(((3-amino-3-carboxy)propyl)(hydroxy)phosphinyl)-methyl]pentane-1,5-dioic Acid]
inactive at 100 μM | – | N[C@@H](CCP(=O)(O)C(O)c1ccccc1C(=O)O)C(=O)O (stereo partly drawn) [Compound 22, (3S)-2-[(((3-amino-3-carboxy)propyl)(hydroxy)phosphinyl)-hydroxymethyl]benzoic Acid]
– | 60% max at 100 μM (1) | N[C@@H](CCP(=O)(O)C(CC(=O)O)C(F)(F)F)C(=O)O (stereo partly drawn) [Compound 28, (3S)-3-[((3-amino-3-carboxy)propyl)(hydroxy)phosphinyl]-3-trifluoromethylpropanoic Acid]
inactive at 100 μM (1) | – | C/C(=C\C(=O)O)C(O)P(=O)(O)CC[C@H](N)C(=O)O (stereo partly drawn) [Compound 31, (3S)-4-[((3-amino-3-carboxy)propyl)(hydroxy)phosphinyl]-4-hydroxy-3-methyl-2-butenoic Acid]
– | 40% max at 100 μM (1) | N[C@@H](CCP(=O)(O)CCP(=O)(O)O)C(=O)O [Compound 42, (3S)-3-[((3-Amino-3-carboxy)propyl)(hydroxy)phosphinyl]ethylphosphonate]
– | 33% max at 100 μM (1) | N[C@@H](CCP(=O)(O)C(CC(=O)O)CP(=O)(O)O)C(=O)O (stereo partly shown) [Compound 44]
– | 33% max at 100 μM (1) | N[C@@H](CCP(=O)(O)Cc1cccc(C(=O)O)c1)C(=O)O [Compound 46, (3S)-3-[(((3-amino-3-carboxy)propyl)(hydroxy)phosphinyl)-methyl]benzoic Acid]
– | 80% max at 100 μM (1) | N[C@@H](CCP(=O)(O)CCCC(=O)O)C(=O)O [Compound 48, (3S)-4-[((3-Amino-3-carboxy)propyl)(hydroxy)phosphinyl]butanoic Acid]
inactive at 100 μM (1) | – | NC(CCP(=O)(O)CCCCC(=O)O)C(=O)O (stereo not shown) [Compound 60, 5-[((3-Amino-3-carboxy)propyl)(hydroxy)phosphinyl]pentanoic Acid]

SMILES | mGlu4 activity at 100 μM | mGlu4 % max at 100 μM
NC(CP(=O)(O)CCC(=O)O)C(=O)O (stereo not shown) [Compound 14] | inactive at 100 μM (1) . . . | –
